Drawing on patent publication US10314823B2, “Substituted 1,2-dihydro-3H-pyrrolo[1,2-c]imidazol-3-one antibacterial compounds” (IDORSIA PHARMACEUTICALS LTD, priority 2015, dated 2019), this text covers MIC for 20 compounds.

Holding throughout (assay): Bacterial growth minimal inhibitory concentration (CLSI broth microdilution)
What all share (format): cell-based
Background: In broth dilution the organism is exposed to a series of concentrations in liquid medium.

For one test, the system named is P. aeruginosa ATCC27853. The following applies: Pseudomonas aeruginosa, ATCC27853; quinolone-sensitive strain; cation-adjusted Mueller-Hinton Broth. In a few lines: (§1)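 Growth inhibition is assessed by broth microdilution in cation-adjusted Mueller-Hinton broth, with MIC values given in mg/L.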
For another test, the system named is E. coli ATCC25922. The following applies: Escherichia coli, ATCC25922; quinolone-sensitive strain; cation-adjusted Mueller-Hinton Broth. The method, boiled down:
as §1

Another test has as its system K. pneumoniae A-651. Particulars: Klebsiella pneumoniae, A651; multiply resistant strain (in particular quinolone-resistant); cation-adjusted Mueller-Hinton Broth. The method, boiled down:
as §1

Converted amounts (≈) assume the structure as drawn.

By MIC is commonly meant the least concentration at which growth counts as inhibited. A low value points to a more susceptible organism. Take `C[C@@](CCN1Cc2cc(C#CC#CC3CN(CCO)C3)cn2C1=O)(C(=O)NO)S(C)(=O)=O` [Example 41, (2R)—N-hydroxy-4-(6-((1-(2-hydroxyethyl)azetidin-3-yl)buta-1,3-diyn-1-yl)-3-oxo-1H-pyrrolo[1,2-c]imidazol-2(3H)-yl)-2-methyl-2-(methylsulfonyl)butanamide]: the MIC against P. aeruginosa ATCC27853, with E. coli ATCC25922 and against K. pneumoniae A-651 was 0.5 µg/mL (≈ 1.08 µM) in each case.

Regarding `C[C@@](CCN1Cc2cc(C#Cc3ccc(CN4CC(O)C4)cc3)cn2C1=O)(C(=O)NO)S(C)(=O)=O` [Example 43, (2R)—N-hydroxy-4-(6-((4-((3-hydroxyazetidin-1-yl)methyl)phenyl)ethynyl)-3-oxo-1H-pyrrolo[1,2-c]imidazol-2(3H)-yl)-2-methyl-2-(methylsulfonyl)butanamide], the MIC in the test on P. aeruginosa ATCC27853 was found to be 0.5 µg/mL (≈ 0.999 µM); against E. coli ATCC25922 it was 0.5 µg/mL (≈ 0.999 µM); in the test with K. pneumoniae A-651 it was 2 µg/mL (≈ 4 µM).

For `CN(C)C[C@@H]1C[C@H]1C#CC#Cc1cc2n(c1)C(=O)N(CC[C@](C)(C(=O)NO)S(C)(=O)=O)C2` [Example 44, (2R)-4-(6-(((1R,2R)-2-((dimethylamino)methyl)cyclopropyl)buta-1,3-diyn-1-yl)-3-oxo-1H-pyrrolo[1,2-c]imidazol-2(3H)-yl)-N-hydroxy-2-methyl-2-(methylsulfonyl)butanamide], the MIC in the test on P. aeruginosa ATCC27853 was 4 µg/mL (≈ 8.69 µM); in the test on E. coli ATCC25922, 2 µg/mL (≈ 4.34 µM); with K. pneumoniae A-651 it was 2 µg/mL (≈ 4.34 µM).

Take `C[C@@](CCN1Cc2cc(C#CC#CC3(O)CCN(C4COC4)CC3)cn2C1=O)(C(=O)NO)S(C)(=O)=O` [Example 45, (2R)—N-hydroxy-4-(6-((4-hydroxy-1-(oxetan-3-yl)piperidin-4-yl)buta-1,3-diyn-1-yl)-3-oxo-1H-pyrrolo[1,2-c]imidazol-2(3H)-yl)-2-methyl-2-(methylsulfonyl)butanamide]: the MIC against P. aeruginosa ATCC27853 was above 8 µg/mL; against E. coli ATCC25922 it was 8 µg/mL (≈ 15.4 µM); against K. pneumoniae A-651, 8 µg/mL (≈ 15.4 µM).

On to `CN1CCC(F)(C#CC#Cc2cc3n(c2)C(=O)N(CC[C@](C)(C(=O)NO)S(C)(=O)=O)C3)CC1` [Example 46, (2R)-4-(6-((4-fluoro-1-methylpiperidin-4-yl)buta-1,3-diyn-1-yl)-3-oxo-1H-pyrrolo[1,2-c]imidazol-2(3H)-yl)-N-hydroxy-2-methyl-2-(methylsulfonyl)butanamide], for which the values for the MIC in the test on P. aeruginosa ATCC27853, against E. coli ATCC25922 and against K. pneumoniae A-651 were 1 µg/mL (≈ 2.09 µM), 0.5 µg/mL (≈ 1.04 µM) and 1 µg/mL (≈ 2.09 µM), respectively.

In the case of `C[C@@](CCN1Cc2cc(C#CC#CC3(F)CCN(C4COC4)CC3)cn2C1=O)(C(=O)NO)S(C)(=O)=O` [Example 47, (2R)-4-(6-((4-fluoro-1-(oxetan-3-yl)piperidin-4-yl)buta-1,3-diyn-1-yl)-3-oxo-1H-pyrrolo[1,2-c]imidazol-2(3H)-yl)-N-hydroxy-2-methyl-2-(methylsulfonyl)butanamide], the MIC with P. aeruginosa ATCC27853 was 2 µg/mL (≈ 3.84 µM); in the test on E. coli ATCC25922, 0.5 µg/mL (≈ 0.96 µM); with K. pneumoniae A-651, 2 µg/mL (≈ 3.84 µM).

Turning to `CN1CCC(O)(C#CC#Cc2cc3n(c2)C(=O)N(CC[C@](C)(C(=O)NO)S(C)(=O)=O)C3)CC1` [Example 48, (2R)—N-hydroxy-4-(6-((4-hydroxy-1-methylpiperidin-4-yl)buta-1,3-diyn-1-yl)-3-oxo-1H-pyrrolo[1,2-c]imidazol-2(3H)-yl)-2-methyl-2-(methylsulfonyl)butanamide], the MIC with P. aeruginosa ATCC27853 is 4 µg/mL (≈ 8.39 µM); in the test with E. coli ATCC25922, above 8 µg/mL; against K. pneumoniae A-651, above 8 µg/mL.

In the case of `C[C@@](CCN1Cc2cc(C#Cc3ccc(CN4CC(F)C4)cc3)cn2C1=O)(C(=O)NO)S(C)(=O)=O` [Example 49, (2R)-4-(6-((4-((3-fluoroazetidin-1-yl)methyl)phenyl)ethynyl)-3-oxo-1H-pyrrolo[1,2-c]imidazol-2(3H)-yl)-N-hydroxy-2-methyl-2-(methylsulfonyl)butanamide], the minimal inhibitory concentration (MIC) against P. aeruginosa ATCC27853 is 1 µg/mL (≈ 1.99 µM); against E. coli ATCC25922, below 0.063 µg/mL; with K. pneumoniae A-651 it was 0.125 µg/mL (≈ 0.249 µM).

For the compound `CN1CCN(C(=O)OCC#CC#Cc2cc3n(c2)C(=O)N(CC[C@](C)(C(=O)NO)S(C)(=O)=O)C3)CC1` [Example 50, (3R)-5-(2-(4-(hydroxyamino)-3-methyl-3-(methylsulfonyl)-4-oxobutyl)-3-oxo-2,3-dihydro-1H-pyrrolo[1,2-c]imidazol-6-yl)penta-2,4-diyn-1-yl 4-methylpiperazine-1-carboxylate], the MIC is 2 µg/mL (≈ 3.85 µM) with P. aeruginosa ATCC27853, 1 µg/mL (≈ 1.92 µM) against E. coli ATCC25922 and 1 µg/mL (≈ 1.92 µM) against K. pneumoniae A-651.

With `C[C@@](CCN1Cc2cc(C#CC#CC3CN(C[C@@H](O)CO)C3)cn2C1=O)(C(=O)NO)S(C)(=O)=O` [Example 51, (2R)-4-(6-((1-((R)-2,3-dihydroxypropyl)azetidin-3-yl)buta-1,3-diyn-1-yl)-3-oxo-1H-pyrrolo[1,2-c]imidazol-2(3H)-yl)-N-hydroxy-2-methyl-2-(methylsulfonyl)butanamide], the MIC against P. aeruginosa ATCC27853 is 1 µg/mL (≈ 2.03 µM); against E. coli ATCC25922 it was 1 µg/mL (≈ 2.03 µM); with K. pneumoniae A-651 it was 4 µg/mL (≈ 8.12 µM).

Consider `[2H]C([2H])N1CC(C#CC#Cc2cc3n(c2)C(=O)N(CC[C@](C)(C(=O)NO)S(C)(=O)=O)C3)C1` [Example 52, (2R)—N-hydroxy-2-methyl-4-(6-((1-(methyl-d2)azetidin-3-yl)buta-1,3-diyn-1-yl)-3-oxo-1H-pyrrolo[1,2-c]imidazol-2(3H)-yl)-2-(methylsulfonyl)butanamide], for which the MIC in the test with P. aeruginosa ATCC27853, with E. coli ATCC25922 and in the test with K. pneumoniae A-651 was 0.5 µg/mL (≈ 1.15 µM) each time.

In the case of `C[C@@](CCN1Cc2cc(C#CC#C[C@@H]3C[C@H](F)CN3)cn2C1=O)(C(=O)NO)S(C)(=O)=O.Cl` [Example 53, (2R)-4-(6-(((2S,4S)-4-fluoropyrrolidin-2-yl)buta-1,3-diyn-1-yl)-3-oxo-1H-pyrrolo[1,2-c]imidazol-2(3H)-yl)-N-hydroxy-2-methyl-2-(methylsulfonyl)butanamide hydrochloride], the MIC in the test on P. aeruginosa ATCC27853, against E. coli ATCC25922 and against K. pneumoniae A-651 was 4 µg/mL in each case.

`CCN1CC(C#CC#Cc2cc3n(c2)C(=O)N(CC[C@](C)(C(=O)NO)S(C)(=O)=O)C3)C1` [Example 54, (2R)-4-(6-((1-ethylazetidin-3-yl)buta-1,3-diyn-1-yl)-3-oxo-1H-pyrrolo[1,2-c]imidazol-2(3H)-yl)-N-hydroxy-2-methyl-2-(methylsulfonyl)butanamide]: the MIC against P. aeruginosa ATCC27853 is 0.5 µg/mL (≈ 1.12 µM); in the test with E. coli ATCC25922 it was 0.25 µg/mL (≈ 0.56 µM); with K. pneumoniae A-651 it was 0.5 µg/mL (≈ 1.12 µM).

Regarding `C[C@@](CCN1Cc2cc(C#CC#CC3CN(CC4CC4)C3)cn2C1=O)(C(=O)NO)S(C)(=O)=O` [Example 55, (2R)-4-(6-((1-(cyclopropylmethyl)azetidin-3-yl)buta-1,3-diyn-1-yl)-3-oxo-1H-pyrrolo[1,2-c]imidazol-2(3H)-yl)-N-hydroxy-2-methyl-2-(methylsulfonyl)butanamide], the MIC against P. aeruginosa ATCC27853 stood at 1 µg/mL (≈ 2.12 µM); with E. coli ATCC25922, 0.125 µg/mL (≈ 0.265 µM); in the test on K. pneumoniae A-651, 0.25 µg/mL (≈ 0.529 µM).

Take `C[C@@](CCN1Cc2cc(C#CC#C[C@H]3C[C@@H]3[C@@H](O)CO)cn2C1=O)(C(=O)NO)S(C)(=O)=O` [Example 56, (2R)-4-(6-(((1S,2S)-2-((R)-1,2-dihydroxyethyl)cyclopropyl)buta-1,3-diyn-1-yl)-3-oxo-1H-pyrrolo[1,2-c]imidazol-2(3H)-yl)-N-hydroxy-2-methyl-2-(methylsulfonyl)butanamide]: the MIC worked out at 0.5 µg/mL (≈ 1.08 µM) with P. aeruginosa ATCC27853, 0.25 µg/mL (≈ 0.539 µM) in the test on E. coli ATCC25922 and 1 µg/mL (≈ 2.16 µM) against K. pneumoniae A-651.

`C[C@@](CCN1Cc2cc(C#CC#CC3CN(C4CC4)C3)cn2C1=O)(C(=O)NO)S(C)(=O)=O` [Example 57, (2R)-4-(6-((1-cyclopropylazetidin-3-yl)buta-1,3-diyn-1-yl)-3-oxo-1H-pyrrolo[1,2-c]imidazol-2(3H)-yl)-N-hydroxy-2-methyl-2-(methylsulfonyl)butanamide]: the results for the MIC in the test with P. aeruginosa ATCC27853, with E. coli ATCC25922 and in the test on K. pneumoniae A-651 were 0.063 µg/mL (≈ 0.137 µM), 0.125 µg/mL (≈ 0.273 µM) and 0.5 µg/mL (≈ 1.09 µM), respectively.

As for `C[C@@](CCN1Cc2cc(C#CC#CC3CN(CC(F)(F)F)C3)cn2C1=O)(C(=O)NO)S(C)(=O)=O` [Example 58, (2R)—N-hydroxy-2-methyl-2-(methylsulfonyl)-4-(3-oxo-6-((1-(2,2,2-trifluoroethyl)azetidin-3-yl)buta-1,3-diyn-1-yl)-1H-pyrrolo[1,2-c]imidazol-2(3H)-yl)butanamide], the MIC against P. aeruginosa ATCC27853 was 0.25 µg/mL (≈ 0.5 µM); in the test with E. coli ATCC25922, 0.5 µg/mL (≈ 0.999 µM); against K. pneumoniae A-651, 4 µg/mL (≈ 7.99 µM).

In the case of `[2H]CN1CC(C#CC#Cc2cc3n(c2)C(=O)N(CC[C@](C)(C(=O)NO)S(C)(=O)=O)C3)C1` [Example 60, (2R)—N-hydroxy-2-methyl-4-(6-((1-(methyl-d)azetidin-3-yl)buta-1,3-diyn-1-yl)-3-oxo-1H-pyrrolo[1,2-c]imidazol-2(3H)-yl)-2-(methylsulfonyl)butanamide], the MIC against P. aeruginosa ATCC27853, against E. coli ATCC25922 and in the test with K. pneumoniae A-651 was 0.5 µg/mL (≈ 1.15 µM) each time.

Regarding `C[C@@](CCN1Cc2cc(C#CC#CC3CN(CCF)C3)cn2C1=O)(C(=O)NO)S(C)(=O)=O` [Example 61, (2R)-4-(6-((1-(2-fluoroethyl)azetidin-3-yl)buta-1,3-diyn-1-yl)-3-oxo-1H-pyrrolo[1,2-c]imidazol-2(3H)-yl)-N-hydroxy-2-methyl-2-(methylsulfonyl)butanamide], the MIC in the test with P. aeruginosa ATCC27853 was determined as 0.5 µg/mL (≈ 1.08 µM); in the test on E. coli ATCC25922 it was 0.063 µg/mL (≈ 0.136 µM); with K. pneumoniae A-651, 0.5 µg/mL (≈ 1.08 µM).

For the compound `C[C@@](CCN1Cc2cc(C#CC#CC3CN(C4CCC4)C3)cn2C1=O)(C(=O)NO)S(C)(=O)=O` [Example 62, (2R)-4-(6-((1-cyclobutylazetidin-3-yl)buta-1,3-diyn-1-yl)-3-oxo-1H-pyrrolo[1,2-c]imidazol-2(3H)-yl)-N-hydroxy-2-methyl-2-(methylsulfonyl)butanamide], the results for the MIC in the test with P. aeruginosa ATCC27853, against E. coli ATCC25922 and with K. pneumoniae A-651 were 1 µg/mL (≈ 2.12 µM), 0.125 µg/mL (≈ 0.265 µM) and 0.125 µg/mL (≈ 0.265 µM), respectively.
